What all share (format): biochemical
The target of one assay is T1, Human ARK5/NUAK1 (Homo sapiens, UniProt O60285).
T1 construct: purchased Reaction Biology ARK5/NUAK1
T1 sequence (O60285 1-661): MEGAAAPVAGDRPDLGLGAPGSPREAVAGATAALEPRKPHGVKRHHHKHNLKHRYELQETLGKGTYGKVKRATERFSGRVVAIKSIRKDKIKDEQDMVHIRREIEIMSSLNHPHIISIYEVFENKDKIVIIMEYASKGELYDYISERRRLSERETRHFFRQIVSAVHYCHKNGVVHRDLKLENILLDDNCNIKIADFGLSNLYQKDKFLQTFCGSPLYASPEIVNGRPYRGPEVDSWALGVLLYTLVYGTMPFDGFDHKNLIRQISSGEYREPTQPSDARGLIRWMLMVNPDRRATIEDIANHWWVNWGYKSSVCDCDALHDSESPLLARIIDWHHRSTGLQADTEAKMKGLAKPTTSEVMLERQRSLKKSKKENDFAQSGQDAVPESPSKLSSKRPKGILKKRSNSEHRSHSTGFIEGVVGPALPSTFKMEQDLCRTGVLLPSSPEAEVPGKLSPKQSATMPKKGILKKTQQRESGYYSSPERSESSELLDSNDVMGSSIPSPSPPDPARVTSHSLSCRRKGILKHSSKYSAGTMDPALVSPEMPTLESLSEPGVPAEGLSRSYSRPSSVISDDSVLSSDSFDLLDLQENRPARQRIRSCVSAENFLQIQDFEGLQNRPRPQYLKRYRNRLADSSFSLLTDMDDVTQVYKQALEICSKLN
The experiment in a line: ARK5 activity inhibition test (Reaction Biology kit, 33P-ATP filter assay). To be noted: ATP 10 μM, peptide substrate 20 μM, 120 min; read-out: ARK5 enzymatic activity (IC50) score. Here is the method:
Activity test was carried out using the kit from Reaction Biology (CAT #: ARK5/NUAK1). The test uses enzyme Human ARK5/NUAK1 and the substrate is the peptide […] (SEQ ID NO: 1), 20 μM and ATP 10 μM. Other reagents are the following: Base Reaction buffer; 20 mM Hepes (pH 7.5), 10 mM MgCl2, 1 mM EGTA, 0.02% Brij35, 0.02 mg/ml BSA, 0.1 mM Na3VO4, 2 mM DTT, 1% DMSO.
The reaction was carried out following the instructions of manufacturer. Briefly, kinase/substrate pairs were prepared in reaction buffer. Compounds were delivered into the reaction, followed 20 minutes later by addition of a mixture of ATP (Sigma, St. Louis Mo.) and ^33P ATP (Perkin Elmer, Waltham Mass.) to a final concentration of 10 μM. Reactions were carried out at room temperature for 120 min, followed by spotting of the reactions onto P81 ion exchange filter paper (Whatman Inc., Piscataway, N.J.). Unbound phosphate was removed by extensive washing of filters in 0.75% phosphoric acid. […] IC50 values and curve fits were obtained using Prism (GraphPad Software).

Another assay addresses T2, JAK1 (Homo sapiens, UniProt P23458).
T2 construct: purchased Carna Biosciences 08-144
The experiment in a line: Functional assay of protein Janus kinases (Caliper mobility shift), JAK1. To be noted: ATP 100 μM, incubation 150 min; read-out: JAK1 enzymatic activity (IC50) score. The method, then:
(§1) The functional assays of protein Janus kinases were carried out in 384-well plates using a final volume of 30 μl. […] The reaction was reads in a “Caliper EzReader LabChip 3000” (Caliper, Hopkinton, Mass.) reader, based on electrophoretic mobility of the fluorescent substrate and the phosphorylated product.
(§2) The inhibition percentages were calculated by comparison between control reactions, for 100% of inhibition and reactions with only DMSO for 0% of inhibition.

A further assay addresses T3, JAK2 (Homo sapiens, UniProt O60674).
T3 construct: purchased Carna Biosciences 08-045
The experiment in a line: Functional assay of protein Janus kinases (Caliper mobility shift), JAK2. To be noted: ATP 300 μM, incubation 30 min; read-out: JAK2 enzymatic activity (IC50) score. Here is the method: as §1, §2

The next assay concerns the target T4, JAK3 (Homo sapiens, UniProt P52333).
T4 construct: purchased Carna Biosciences 08-046
Briefly: Functional assay of protein Janus kinases (Caliper mobility shift), JAK3. To be noted: ATP 8 μM, incubation 30 min; read-out: JAK3 enzymatic activity (IC50) score. Here is the method:
as §1, §2

Another assay deals with T5, TYK2 (Homo sapiens, UniProt P29597).
T5 construct: purchased Carna Biosciences 08-147
T5 sequence (P29597 871-1187 limits assumed): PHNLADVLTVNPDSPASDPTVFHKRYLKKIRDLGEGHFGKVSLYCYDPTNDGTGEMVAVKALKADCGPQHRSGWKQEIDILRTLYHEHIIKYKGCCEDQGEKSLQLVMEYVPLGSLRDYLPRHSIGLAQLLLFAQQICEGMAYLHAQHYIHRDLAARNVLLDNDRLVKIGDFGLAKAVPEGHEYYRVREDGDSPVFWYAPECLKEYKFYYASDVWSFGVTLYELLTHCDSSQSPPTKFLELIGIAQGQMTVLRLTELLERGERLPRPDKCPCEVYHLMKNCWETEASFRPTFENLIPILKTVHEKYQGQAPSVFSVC
The experiment in a line: Functional assay of protein Janus kinases (Caliper mobility shift), TYK2. To be noted: ATP 20 μM, incubation 45 min; read-out: TYK2 enzymatic activity (IC50) score. The method, then: as §1, §2

Consider ten molecules from patent US11021479B2, “Pyridoquinazoline derivatives useful as protein kinase inhibitors” (ONCOSTELLAE, S.L., priority 2017, dated 2021).

T3 sequence (O60674 826-1132 limits assumed): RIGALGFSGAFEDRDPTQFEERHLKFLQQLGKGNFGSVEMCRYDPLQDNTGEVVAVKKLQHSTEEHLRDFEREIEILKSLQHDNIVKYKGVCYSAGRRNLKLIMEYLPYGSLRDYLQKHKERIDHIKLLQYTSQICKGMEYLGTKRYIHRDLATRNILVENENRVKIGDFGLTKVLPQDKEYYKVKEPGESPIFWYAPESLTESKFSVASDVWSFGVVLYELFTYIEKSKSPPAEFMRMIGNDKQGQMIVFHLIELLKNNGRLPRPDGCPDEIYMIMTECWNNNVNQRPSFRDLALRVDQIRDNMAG
T4 sequence (P52333 795-1124 limits assumed): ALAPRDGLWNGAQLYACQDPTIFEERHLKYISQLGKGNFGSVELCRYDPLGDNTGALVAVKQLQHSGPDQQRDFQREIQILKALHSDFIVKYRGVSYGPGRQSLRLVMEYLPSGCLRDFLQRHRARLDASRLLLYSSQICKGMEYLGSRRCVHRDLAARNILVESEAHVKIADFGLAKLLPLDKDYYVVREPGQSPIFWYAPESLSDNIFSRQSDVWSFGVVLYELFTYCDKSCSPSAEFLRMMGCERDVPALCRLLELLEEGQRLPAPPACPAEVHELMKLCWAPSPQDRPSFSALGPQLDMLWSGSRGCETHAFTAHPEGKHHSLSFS
T2 sequence (P23458 850-1154 limits assumed): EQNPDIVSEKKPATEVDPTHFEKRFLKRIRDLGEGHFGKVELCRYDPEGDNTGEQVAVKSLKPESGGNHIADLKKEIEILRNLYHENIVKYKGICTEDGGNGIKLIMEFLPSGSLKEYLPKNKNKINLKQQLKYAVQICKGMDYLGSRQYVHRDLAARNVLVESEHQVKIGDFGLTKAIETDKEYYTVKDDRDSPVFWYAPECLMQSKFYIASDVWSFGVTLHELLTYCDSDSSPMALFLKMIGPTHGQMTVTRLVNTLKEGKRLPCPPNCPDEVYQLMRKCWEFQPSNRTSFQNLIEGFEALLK

Usually IC50 stands for the concentration that inhibits the measured activity by half. For `O=C(NC1CCCCC1)c1cccn2c(=O)c3cc(C4CC4)ccc3nc12` [Example 1, N-cyclohexyl-2-cyclopropyl-11-oxo-11H-pyrido[2,1-b]quinazoline-6-carboxamide], the IC50 at Human ARK5/NUAK1 was under 100 nM; on JAK1 it was over 1000 nM; on JAK2 it was over 1000 nM; at JAK3, under 100 nM; on TYK2 it was under 100 nM.
Turning to `O=C(NC1CCCC1)c1cccn2c(=O)c3cc(C4CC4)ccc3nc12` [Example 2, N-cyclopentyl-2-cyclopropyl-11-oxo-11H-pyrido[2,1-b]quinazoline-6-carboxamide], the IC50 at Human ARK5/NUAK1 was under 100 nM; at JAK1, over 1000 nM; on JAK2, over 1000 nM; at JAK3 it was under 100 nM; at TYK2, under 100 nM.
For `COc1ccc2nc3c(C(=O)NC4CCCCC4)cccn3c(=O)c2c1` [Example 20, N-cyclohexyl-2-methoxy-11-oxo-11H-pyrido[2,1-b]quinazoline-6-carboxamide], the IC50 on Human ARK5/NUAK1, at JAK3 and on TYK2 was under 100 nM in each case.
For the molecule `O=C(NC1CCCCC1)c1cccn2c(=O)c3cc(-c4ccc(F)cc4)ccc3nc12` [Example 29, N-cyclohexyl-2-(4-fluorophenyl)-11-oxo-11H-pyrido[2,1-b]quinazoline-6-carboxamide], the IC50 on Human ARK5/NUAK1 is under 100 nM; on JAK1, over 1000 nM; at JAK2 it was over 1000 nM; on JAK3 it was 100 to 1000 nM; at TYK2, over 1000 nM.
On to `O=C(NC1CCCC1)c1cccn2c(=O)c3cc(-c4ccncc4)ccc3nc12` [Example 32, N-cyclopentyl-11-oxo-2-(pyridin-4-yl)-11H-pyrido[2,1-b]quinazoline-6-carboxamide], for which the concentration for half-maximal inhibition (IC50) on JAK1 was over 1000 nM; on JAK2 it was over 1000 nM; at JAK3, 100 to 1000 nM; on TYK2, under 100 nM.
Consider `O=C(NC1CCCCC1)c1cccn2c(=O)c3cc(-c4ccncc4)ccc3nc12` [Example 33, N-cyclohexyl-11-oxo-2-(pyridin-4-yl)-11H-pyrido[2,1-b]quinazoline-6-carboxamide], for which the IC50 on Human ARK5/NUAK1 is under 100 nM; on JAK1 it was over 1000 nM; on JAK2, over 1000 nM; on JAK3, under 100 nM; on TYK2, under 100 nM.
Consider `O=C(N[C@H]1CCCC[C@H]1O)c1cccn2c(=O)c3cc(-c4ccncc4)ccc3nc12` [Example 34, N-((1S,2R)-2-hydroxycyclohexyl)-11-oxo-2-(pyridin-4-yl)-11H-pyrido[2,1-b]quinazoline-6-carboxamide], for which the concentration for half-maximal inhibition (IC50) at JAK1 is over 1000 nM; at JAK2, over 1000 nM; at JAK3 it was 100 to 1000 nM; on TYK2 it was 100 to 1000 nM.
Consider `CN1CCN(c2ccc3nc4c(C(=O)NC5CCCC5)cccn4c(=O)c3c2)CC1` [Example 35, N-cyclopentyl-2-(4-methylpiperazin-1-yl)-11-oxo-11H-pyrido[2,1-b]quinazoline-6-carboxamide], for which the IC50 is over 1000 nM at JAK1, over 1000 nM on JAK2, under 100 nM at JAK3 and 100 to 1000 nM on TYK2.
For the molecule `CN1CCN(c2ccc3nc4c(C(=O)NC5CCCCC5)cccn4c(=O)c3c2)CC1` [Example 36, N-cyclohexyl-2-(4-methylpiperazin-1-yl)-11-oxo-11H-pyrido[2,1-b]quinazoline-6-carboxamide], the IC50 on Human ARK5/NUAK1 was under 100 nM; on JAK1 it was over 1000 nM; at JAK2 it was over 1000 nM; on JAK3, under 100 nM; at TYK2, under 100 nM.
Turning to `O=C(NC1CCCCC1)c1cccn2c(=O)c3cc(N4CCOCC4)ccc3nc12` [Example 38, N-cyclohexyl-2-morpholino-11-oxo-11H-pyrido[2,1-b]quinazoline-6-carboxamide], the IC50 on Human ARK5/NUAK1 is under 100 nM; on JAK1, over 1000 nM; on JAK2, over 1000 nM; at JAK3, under 100 nM; on TYK2, under 100 nM.
